Patent US4716153A, “Stable oral preparation of macrolide antibiotics and method for stabilizing the same” (priority 1982, dated 1987)

Test: Elution rate in aqueous solutions of various pH and physiological saline solution
Type: physicochemical
Description: After 40 ml of Japan Pharmacopoeia 1st solution (pH 1.2) was placed in a vessel whose temperature was kept constant in a thermostat at 37° C., 200 mg of TMS-19-Q was added and the mixture was stirred by a magnetic stirrer. […] Then, Japan Pharmacopoeia 2nd solution were mixed with the 1st solution, and by using aqueous solutions whose pH values were adjusted to be 2, 3, 4 and 5 and a physiological saline solution, respectively, elution rate of each thereof was measured.
To 40 ml of Japan Pharmacopoeia 1st solution (pH 1.2), 120 ml of water was added, and after the solution was kept in a constant temperature bath controlled at 37° C., 200 mg of midecamycin was added, and the mixture was stirred by a magnetic stirrer. Then, 5 ml aliquots of the solution were sampled in a lapse of time (at 5 minutes, 15 minutes and 30 minutes), and absorbances were measured (wavelength: 232 nm) and elution rate were calculated. Then, Japan Pharmacopoeia 1st solution and Japan Pharmacopoeia 2nd solution were mixed to prepare aqueous solutions whose pH values were adjusted to be 2, 3, 4 and 5, respectively. By using these solutions and physiological saline solution, the elution rates were calculated following the same procedures as those indicated above.
By following the same procedures and under the same conditions as those of Example 31, elution rates of 9-propionyljosamycin were measured.
By following the same procedures and under the same conditions as those of Example 31, elution rates of josamycin were measured.
In addition to the conditions of Example 31, Japan Pharmacopoeia 1st solution and Japan Parmacopoeia 2nd solution were mixed to prepare an aqueous solution having pH of 2.5, and following the same procedures as those of Example 31, elution rates of 9,3"-diacetylmidecamycin were measured.

With `CCCC(=O)OC1C(C)OC(OC2C(C)OC(OC3C(CC=O)CC(C)C(O)/C=C/C=C/CC(C)OC(=O)CC(O)C3OC)C(O)C2N(C)C)CC1(C)OC(=O)CC` (stereo not shown) [TMS-19-Q, 3"-propionyl leucomycin A5] the “elution rate, pH 1.2, 2 and 3” value (initial pH 1.2, 2 and 3, after 15-minute stirring, 37° C.) was no less than 90%, the “elution rate, pH 4 and 5” value (initial pH 4 and 5, after 15-minute stirring, 37° C.) was 40-45% and the “elution rate in pH 1.2-3 acidic aqueous solution (summary)” value (pH 1.2-3, general description) was “more than 95%”. For the same compound, the “elution rate in pH 4-5 weak acidic aqueous solution (summary)” value (pH 4-5, general description) was “less than 50%”, the “elution rate, physiological saline solution” value (physiological saline solution, after 15-minute stirring, 37° C.) was 10% and the “elution rate in physiological saline solution (summary)” value (physiological saline solution, general description) was “less than 15%”. The “time within which elution was nearly completed” value (solutions whose pH is equal to or less than 4.5) was no more than 15 min.
